Results published in patent publication US20220242870A1, “HETEROCYCLE-FUSED PYRIMIDINE DERIVATIVE AND USE THEREOF” (VORONOI Inc., priority 2019, published 2022).

Experiments:
[1] = target: T1, human FLT3-ITD enzyme (Homo sapiens, UniProt P36888); test: FLT3 enzyme inhibitory ability (ADP-Glo kinase assay); format: biochemical; conditions: human FLT3-ITD enzyme 10 ng, ATP 10 μM, 25° C. 1 hour
T1 sequence (P36888 1-993): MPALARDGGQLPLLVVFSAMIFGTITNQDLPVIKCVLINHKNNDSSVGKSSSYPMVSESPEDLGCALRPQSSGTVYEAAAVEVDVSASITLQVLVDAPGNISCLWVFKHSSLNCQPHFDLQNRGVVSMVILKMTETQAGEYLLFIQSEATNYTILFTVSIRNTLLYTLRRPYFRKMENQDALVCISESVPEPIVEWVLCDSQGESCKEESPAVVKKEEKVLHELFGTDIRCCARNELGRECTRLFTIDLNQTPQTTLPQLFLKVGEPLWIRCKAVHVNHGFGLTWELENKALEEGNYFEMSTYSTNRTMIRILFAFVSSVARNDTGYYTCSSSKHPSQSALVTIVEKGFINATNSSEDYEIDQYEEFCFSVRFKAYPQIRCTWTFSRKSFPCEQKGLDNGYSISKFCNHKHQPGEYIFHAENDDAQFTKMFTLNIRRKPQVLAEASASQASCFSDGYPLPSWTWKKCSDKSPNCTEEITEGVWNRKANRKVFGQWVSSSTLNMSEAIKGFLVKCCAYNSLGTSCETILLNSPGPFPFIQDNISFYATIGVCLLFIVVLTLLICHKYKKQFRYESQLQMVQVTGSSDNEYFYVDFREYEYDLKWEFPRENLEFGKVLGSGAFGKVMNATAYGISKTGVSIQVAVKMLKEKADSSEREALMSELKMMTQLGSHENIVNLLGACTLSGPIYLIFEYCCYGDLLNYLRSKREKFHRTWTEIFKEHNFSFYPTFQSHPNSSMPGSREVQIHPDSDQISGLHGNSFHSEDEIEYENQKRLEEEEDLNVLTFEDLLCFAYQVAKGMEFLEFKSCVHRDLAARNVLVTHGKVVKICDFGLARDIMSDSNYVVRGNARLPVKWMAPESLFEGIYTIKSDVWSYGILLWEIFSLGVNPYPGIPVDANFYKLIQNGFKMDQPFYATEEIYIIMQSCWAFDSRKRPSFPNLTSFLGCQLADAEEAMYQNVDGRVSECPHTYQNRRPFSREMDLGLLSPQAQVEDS
Experimental: The inhibitory activities of the example compounds according to the present invention to the FLT3-ITD enzyme were evaluated. Specifically, the compound of the present invention was reacted with a purified human FLT3-ITD enzyme (Signalchem). A composition of 40 mM Tris-HCl pH 7.4, 20 mM MgCl2, 0.5 mg/mL BSA and 50 μM DTT was used as a reaction buffer, and reactions of all test matters were performed on the reaction buffer. Upon the test, human FLT3-ITD enzyme (10 ng), purified ATP (10 μM) and a specific substrate solution were reacted at 25° C. for 1 hour, and then the enzyme activity was identified using an in vitro ADP-Glo™ kinase assay (Promega). The enzyme activity reaction solution, the ADP-Glo reaction solution and the enzyme ability detection solution were reacted in a ratio of 2:2:1, and the activity inhibition degree of the enzyme was measured as luminescence. Using the solvent-treated group that was not treated with the compound as a control group, the enzyme activity inhibition degree according to the treatment concentration of each compound was calculated based on the enzyme activity fluorescence degree, and the concentration of each compound that inhibited 50%, IC50 (nM), was determined using Prism Software (version 5.01, GraphPad).

[2] = target: T2, human GST-HPK1 (1-346) (Homo sapiens, UniProt Q92918); test: HPK1 enzyme inhibitory ability (ADP-Glo kinase assay); format: biochemical; conditions: human GST-HPK1 3 ng, ATP 3 uM, 25° C. 2 hours
T2 construct: purified human GST-HPK1 (1-346, Signalchem) enzyme; purchased Signalchem
T2 sequence (Q92918 1-346): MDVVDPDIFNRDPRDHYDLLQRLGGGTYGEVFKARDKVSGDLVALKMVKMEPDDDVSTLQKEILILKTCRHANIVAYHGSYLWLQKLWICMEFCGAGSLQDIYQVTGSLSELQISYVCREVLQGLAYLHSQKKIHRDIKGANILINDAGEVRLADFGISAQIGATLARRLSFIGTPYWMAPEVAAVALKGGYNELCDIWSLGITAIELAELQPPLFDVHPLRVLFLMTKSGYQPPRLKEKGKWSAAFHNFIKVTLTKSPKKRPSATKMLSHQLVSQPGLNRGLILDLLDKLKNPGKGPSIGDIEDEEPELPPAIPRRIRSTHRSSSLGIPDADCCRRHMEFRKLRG
Experimental: In order to evaluate the inhibitory activities of the example compounds according to the present invention on the HPK1 (hematopoietic progenitor kinase 1) enzyme, the following experiment was performed. The example compounds were reacted with the purified human GST-HPK1 (1-346, Signalchem) enzyme to evaluate the enzyme inhibitory ability by the following method. As the reaction buffer, a composition of 40 mM Tris-HCl pH 7.4, 20 mM MgCl2, 0.5 mg/mL BSA and 50 uM DTT was used, and reactions of all test matters were performed on the reaction buffer. Upon the test, the human GST-HPK1 (3 ng) enzyme, the purified ATP (3 uM) and a specific substrate solution were reacted at 25° C. for 2 hours, and then the enzyme activity was identified using an in vitro ADP-Glo™ kinase assay (promega). The enzyme activity reaction solution, the ADP-Glo reaction solution and the enzyme ability detection solution were reacted in a ratio of 2:2:1 to measure luminescence. The enzyme activity inhibition degree according to the treatment concentrations of the respective compounds was calculated based on the fluorescence of the enzyme activity of the solvent control group that was not treated with the compound, where the concentration of each compound that inhibited enzyme activity inhibition by 50% was determined as an IC50 (nM) value.

[3] = tested on: MCF-7 cells; test: Breast cancer cell line proliferation inhibitory activity (CellTiter-Glo 2.0); format: cell-based; conditions: Homo sapiens, MCF7, 120 hours
Experimental: In order to evaluate the breast cancer cell line cell proliferation inhibitory activities of Examples according to the present invention, the following experiment was performed. Breast cancer cells of MCF-7 (Korean Cell Line Bank) were planted in a clear bottom white 96-well plate (Corning) so as to be 3×10^3/150 μl/well, and a culture solution comprising the compound continuously diluted in multiples of 3 at 12 concentrations (0.00001-2 mM) and a DMSO control group was added by 0.5 μl/well and treated so that the final concentration was 0.00005-10 μM, and then cultured in a 37° C. CO2 incubator for 120 hours. After 120 hours, the plate treated with the compound is taken out, and CellTiter-Glo® 2.0 Assay (Promega) solution is treated at 150 μl/well and then they mix well. They mix well at room temperature for 10 minutes or so, and the fluorescence is measured with a microplate reader. The data were expressed as a percentage in proportion to the vehicle standard treated cells, the GI50 (nM) values were calculated using GraphPad Prism 8.3.0 (GraphPad software Inc., San Diego), and the results were shown in Table 3 below.

OCCN1CC[C@@H](Oc2cc(Nc3nc(N4N=CCC4c4ccccc4)c4sccc4n3)cc(C3CC3)c2)C1 (stereo partly drawn) [Example 14, 2-((3R)-3-(3-cyclopropyl-5-((4-(5-phenyl-4,5-dihydro-1H-pyrazol-1-yl)thieno[3,2-d]pyrimidin-2-yl)amino)phenoxy)pyrrolidin-1-yl)ethan-1-ol]
> 500 nM: IC50 [1] | IC50 [2] | GI50 [3]

COc1cc(Nc2nc(N3N=CCC3c3ccccc3)c3sccc3n2)cc(C(=O)N2CCN(CCO)CC2)c1 (stereo not drawn) [Example 15, (4-(2-hydroxyethyl)piperazin-1-yl)(3-methoxy-5-((4-(5-phenyl-4,5-dihydro-1H-pyrazol-1-yl)thieno[3,2-d]pyrimidin-2-yl)amino)phenyl)methanone]
> 500 nM: IC50 [1] | IC50 [2] | GI50 [3]

CN(C)[C@@H]1CCN(c2cccc(Nc3nc(N4N=CCC4c4ccccc4)c4sccc4n3)c2)C1 (stereo partly drawn) [Example 17, N-(3-((R)-3-(dimethylamino)pyrrolidin-1-yl)phenyl)-4-(5-phenyl-4,5-dihydro-1H-pyrazol-1-yl)thieno[3,2-d]pyrimidin-2-amine]
> 500 nM: IC50 [1] | IC50 [2] | GI50 [3]

CN(C)[C@H]1CCN(c2cccc(Nc3nc(N4N=CCC4c4ccccc4)c4sccc4n3)c2)C1 (stereo partly drawn) [Example 18, N-(3-((S)-3-(dimethylamino)pyrrolidin-1-yl)phenyl)-4-(5-phenyl-4,5-dihydro-1H-pyrazol-1-yl)thieno[3,2-d]pyrimidin-2-amine]
> 500 nM: IC50 [1] | IC50 [2] | GI50 [3]

COc1cc(Nc2nc(N3OCC[C@@H]3c3ccccc3)c3sccc3n2)ccc1N1CCC(N2CCN(C)CC2)CC1 [Example 58, (R)-N-(3-methoxy-4-(4-(4-methylpiperazin-1-yl)piperidin-1-yl)phenyl)-4-(3-phenylisoxazolidin-2-yl)thieno[3,2-d]pyrimidin-2-amine]
> 500 nM: IC50 [1] | IC50 [2] | GI50 [3]

CN1CCN(c2ccc(Nc3nc(N4OCC[C@@H]4c4ccccc4)c4sccc4n3)cc2)CC1 [Example 60, (R)-N-(4-(4-methylpiperazin-1-yl)phenyl)-4-(3-phenylisoxazolidin-2-yl)thieno[3,2-d]pyrimidin-2-amine]
> 500 nM: IC50 [1] | IC50 [2] | GI50 [3]

CN(C)[C@@H]1CCN(c2cccc(Nc3nc(N4OCC[C@H]4c4ccccc4)c4sccc4n3)c2)C1 [Example 61, N-(3-((R)-3-(dimethylamino)pyrrolidin-1-yl)phenyl)-4-((S)-3-phenylisoxazolidin-2-yl)thieno[3,2-d]pyrimidin-2-amine]
> 500 nM: IC50 [1] | IC50 [2] | GI50 [3]

CN(C)[C@H]1CCN(c2cccc(Nc3nc(N4OCC[C@H]4c4ccccc4)c4sccc4n3)c2)C1 [Example 62, N-(3-((S)-3-(dimethylamino)pyrrolidin-1-yl)phenyl)-4-((S)-3-phenylisoxazolidin-2-yl)thieno[3,2-d]pyrimidin-2-amine]
> 500 nM: IC50 [1] | IC50 [2] | GI50 [3]

CN(C)[C@@H]1CCN(c2cccc(Nc3nc(N4OCC[C@@H]4c4ccccc4)c4sccc4n3)c2)C1 [Example 63, N-(3-((R)-3-(dimethylamino)pyrrolidin-1-yl)phenyl)-4-((R)-3-phenylisoxazolidin-2-yl)thieno[3,2-d]pyrimidin-2-amine]
> 500 nM: IC50 [1] | IC50 [2] | GI50 [3]

CN(C)[C@H]1CCN(c2cccc(Nc3nc(N4OCC[C@@H]4c4ccccc4)c4sccc4n3)c2)C1 [Example 64, N-(3-((S)-3-(dimethylamino)pyrrolidin-1-yl)phenyl)-4-((R)-3-phenylisoxazolidin-2-yl)thieno[3,2-d]pyrimidin-2-amine]
> 500 nM: IC50 [1] | IC50 [2] | GI50 [3]

OCCN1CC[C@@H](Oc2cc(Nc3nc(N4OCC[C@H]4c4ccccc4)c4sccc4n3)cc(C3CC3)c2)C1 [Example 65, 2-((R)-3-(3-cyclopropyl-5-((4-((S)-3-phenylisoxazolidin-2-yl)thieno[3,2-d]pyrimidin-2-yl)amino)phenoxy)pyrrolidin-1-yl)ethan-1-ol]
> 500 nM: IC50 [1] | IC50 [2] | GI50 [3]

COc1cc(Nc2nc(N3OCC[C@H]3c3ccccc3)c3sccc3n2)cc(C(=O)N2CCN(CCO)CC2)c1 [Example 66, (S)-(4-(2-hydroxyethyl)piperazin-1-yl)(3-methoxy-5-((4-(3-phenylisoxazolidin-2-yl)thieno[3,2-d]pyrimidin-2-yl)amino)phenyl)methanone]
> 500 nM: IC50 [1] | IC50 [2] | GI50 [3]

COc1cc(Nc2nc(N3OCC[C@@H]3c3ccccc3)c3sccc3n2)cc(C(=O)N2CCN(CCO)CC2)c1 [Example 67, (R)-(4-(2-hydroxyethyl)piperazin-1-yl)(3-methoxy-5-((4-(3-phenylisoxazolidin-2-yl)thieno[3,2-d]pyrimidin-2-yl)amino)phenyl)methanone]
> 500 nM: IC50 [1] | IC50 [2] | GI50 [3]
